Measurements from publication PMC3850815, “Molecular details of ligand selectivity determinants in a promiscuous β-glucan periplasmic binding protein” (BMC Structural Biology, 2013).

Columns and labels:
[1] = target: T1, tmCBP (Thermotoga maritima cellobiose-binding protein) (Thermotoga maritima, UniProt Q9WXN8); test: CD thermal denaturation at […] nm; conditions: Tm without ligand 94.8 °C; 1 mM ligand, 0.5 μM protein, 2 M guanidine hydrochloride, 10 mM Tris-HCl pH 8.0, 40 mM NaCl
T1 construct: gene TM_0031; recombinant, E. coli BL21-RIL, nickel chelation purification (tagged); 582 residues modelled; ligand-free protein from Enfor's minimal medium

[2] = target: T1, tmCBP (Thermotoga maritima cellobiose-binding protein); test: small-angle neutron scattering, ligand-induced closure; conditions: 5 mM ligand, 20 mM Tris pH 8.0, 40 mM NaCl, D2O, 20 °C
[3] = target: the molecule itself; test: small-angle neutron scattering (SANS); tmCBP at 4.2-16.7 mg/mL in 20 mM Tris pH 8.0, 40 mM NaCl, 100% D2O, 20°C; molecular mass from the intensity at zero scattering angle; apo protein, and with 5 mM cellobiose added (associations then alleviated)

Row | Molecule | Tm [1] [°C] | other results
1 | OC[C@H]1O[C@@H](O[C@H]2[C@H](O)[C@@H](O)C(O)O[C@@H]2CO)[C@H](O)[C@@H](O)[C@@H]1O (stereo partly shown) [cellobiose] |  | small-angle neutron scattering, ligand-induced closure [2]: Upon addition of ligand the protein undergoes large scale conformational changes
2 | Thermotoga maritima cellobiose binding protein (natural protein, final crystal models hold 582 amino acids; expected mass 68.7 kDa; the apo (ligand-free) form was used for the SANS measurement of self-association; also called tmCBP) QVSLPREDTVYIGGALWGPATTWNLYAPQSTWGTDQFMYLPAFQYDLGRDAWIPVIAERYEFVDDKTLRIYIRPEARWSDGVPITADDFVYALELTKELGIGPGGGWDTYIEYVKAVDTKVVEFKAKEENLNYFQFLSYSLGAQPMPKHVYERIRAQMNIKDWINDKPEEQVVSGPYKLYYYDPNIVVYQRVDDWWGKDIFGLPRPKYLAHVIYKDNPSASLAFERGDIDWNGLFIPSVWELWEKKGLPVGTWYKKEPYFIPDGVGFVYVNNTKPGLSDPAVRKAIAYAIPYNEMLKKAYFGYGSQAHPSMVIDLFEPYKQYIDYELAKKTFGTEDGRIPFDLDMANKILDEAGYKKGPDGVRVGPDGTKLGPYTISVPYGWTDWMMMCEMIAKNLRSIGIDVKTEFPDFSVWADRMTKGTFDLIISWSVGPSFDHPFNIYRFVLDKRLSKPVGEVTWAGDWERYDNDEVVELLDKAVSTLDPEVRKQAYFRIQQIIYRDMPSIPAFYTAHWYEYSTKYWINWPSEDNPAWFRPSPWHADAWPTLFIISKKSDPQPVPSWLGTVDEGGIEIPTAKIFEDLQKATM |  | binding result [3]: binds

Now from value to molecule, other results behind:

Row | Tm [1] [°C] | Molecule | other results
3 | 105.2 | OC[C@H]1O[C@@H](O[C@@H]2[C@@H](O)[C@H](O[C@@H]3[C@@H](O)[C@H](O[C@@H]4[C@@H](O)[C@H](O[C@H]5[C@H](O)[C@@H](CO)OC(O)[C@@H]5O)O[C@H](CO)[C@H]4O)O[C@H](CO)[C@H]3O)O[C@H](CO)[C@H]2O)[C@H](O)[C@@H](O)[C@@H]1O (stereo partly shown) [LR5, laminaripentaose] | 
4 | 99.2 | OC[C@H]1O[C@@H](O[C@H]2[C@H](O)[C@@H](CO)OC(O)[C@@H]2O)[C@H](O)[C@@H](O)[C@@H]1O (stereo partly shown) [LR2, laminaribiose] | 
